# Earlier results as cited in US5849696A, “Composition and method of treating hepatitis C” (The Board of Governors of Wayne State University, priority 1993, dated 1998).
# Like-named read-outs stand apart in the source and are kept apart here. Where no end group is shown, it is not given here.
# Tests used:
# [1] = tested on: natural killer-cell activity; conditions: THNα1 together with interferon, immunosuppressed mice
# hepatitis B virus (HBV) = conditions: treated for a year
# [2] = tested on: Woodchuck Hepatitis Virus; conditions: woodchuck infected with Woodchuck Hepatitis Virus
# [3] = tested on: nonsmall cell lung cancer
# HCV = conditions: in vivo
# [4] = tested on: chronic hepatitis C (NANB hepatitis)
compound,measurement,setting,value
"Thymosin α-1 (SDAAVDTSSEITTKDLKEKKEVVEEAEN; ends and bridges not checked; UniProt P06454 2-29, looked up) [THNα1]",effect on natural killer-cell activity,[1],synergistic effect
same,patients with reduced levels of serum HBV DNA,hepatitis B virus (HBV); pooled THNα1 (5 patients) and TF-5 (2 patients),6 of the 7
same,patients initially positive for serum HBsAg who subsequently cleared this antigen,hepatitis B virus (HBV); pooled THNα1 and TF-5 patients,5 of 6
same,serum ALT,hepatitis B virus (HBV); THNα1 (5 patients) or TF-5 (2 patients),marked decrease
same,clinical parameters,[2],no improvement
same,viral DNA replication,[2],suppressed viral DNA replication
same,interleukin-2 receptor expression,human lymphocytes,increase
same,"production of interferon-α, interferon-γ and interleukin-2",human lymphocytes,promote production
same,clinical or biochemical toxicity,influenza vaccine; drug recipients,No clinical or biochemical toxicity was observed
same,levels of antibody to influenza,"influenza vaccine; six weeks post-vaccine, subcutaneously twice weekly",higher levels of antibody to influenza than controls
same,immune function,[3]; after radiotherapy,some restoration of radiation-suppressed immune function
same,relapse-free survival and overall survival,[3]; both THNα1 treatment groups versus placebo group,greater
same,T-cell numbers,"[3]; human, in vivo",no increase
Nc1nc2c(ncn2COCCO)c(=O)[nH]1 [acyclovir],effect on HCV-related diseases,HCV,ineffective
interferon α,mean serum ALT levels during the 24 week treatment period,chronic NANB hepatitis; 1 MU three times a week,decreased
same,proportion of patients with normal ALT levels,"chronic NANB hepatitis; at 24 weeks, 1 MU group",45%
same,proportion of patients with normal ALT levels,"chronic NANB hepatitis; at 24 weeks, 3 MU group",39%
same,proportion of patients with normal ALT levels,"chronic NANB hepatitis; at week 48, 1 MU group",20%
same,proportion of patients with normal ALT levels,"chronic NANB hepatitis; at week 48, 3 MU group",28%
same,"repeat liver biopsy, severity of histological changes",chronic NANB hepatitis; higher dose group (3 MU),significant decrease in the severity of histological changes
same,relapse in disease activity when interferon was stopped,chronic NANB hepatitis; responders,approximately half of the responders
same,mean serum ALT and histological features of the liver,chronic HCV infection; 2 MU subcutaneously three times weekly for six months,improved significantly
same,complete response (decline in mean serum ALT to the normal range during therapy),"chronic HCV infection; 2 MU subcutaneously three times weekly for six months, ten of twenty-one patients",48%
same,further patients with decrease in mean ALT of more than 50%,chronic HCV infection; 2 MU three times weekly for six months,three
same,patients still with normal serum ALT values,"chronic HCV infection; six to twelve months after discontinuation of therapy, two patients",10%
same,relapse within six months after the completion of treatment,[4]; 1 MU,44%
same,serum ALT response,"[4]; 1 MU three times weekly for 24 weeks, nine of sixteen patients",56%
same,liver histology,[4]; 3 MU,histologic improvement
same,relapse within six months after the completion of treatment,[4]; 3 MU,51%
same,serum ALT level became completely normal,"[4]; 3 MU three times weekly for 24 weeks, 22 of the 26 patients who responded",85%
